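Values below derive from 48-hour exposures of cells grown in 96-well plates, with endpoints linearly interpolated between the two concentrations bracketing the appropriate inhibition level. TGI marks complete inhibition of growth.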
Tests used:
Experiment in all cases: NCI anticancer screen, dose series, 48 h
786-0 renal = test system: 786-0 renal
A498 renal = test system: A498 renal
A549 NSCLC = test system: A549 NSCLC
ACHN renal = test system: ACHN renal
CAKI-1 renal = test system: CAKI-1 renal
CCRF-CEM leukemia = test system: CCRF-CEM leukemia
COLO 205 colon = test system: COLO 205 colon
DLD-1 colon = test system: DLD-1 colon
DMS 114 small cell lung = test system: DMS 114 small cell lung
DMS 273 small cell lung = test system: DMS 273 small cell lung
EKVX NSCLC = test system: EKVX NSCLC
HCC-2998 colon = test system: HCC-2998 colon
HCT-116 colon = test system: HCT-116 colon
HCT-15 colon = test system: HCT-15 colon
HL-60(TB) leukemia = test system: HL-60(TB) leukemia
HOP-18 NSCLC = test system: HOP-18 NSCLC
HOP-62 NSCLC = test system: HOP-62 NSCLC
HOP-92 NSCLC = test system: HOP-92 NSCLC
HT29 colon = test system: HT29 colon
IGROV1 ovarian = test system: IGROV1 ovarian
K-562 leukemia = test system: K-562 leukemia
KM12 colon = test system: KM12 colon
KM20L2 colon = test system: KM20L2 colon
LOX IMVI melanoma = test system: LOX IMVI melanoma
LXFL 529 NSCLC = test system: LXFL 529 NSCLC
M14 melanoma = test system: M14 melanoma
M19-MEL melanoma = test system: M19-MEL melanoma
MALME-3M melanoma = test system: MALME-3M melanoma
MOLT-4 leukemia = test system: MOLT-4 leukemia
NCI-H226 lung = test system: NCI-H226 lung
NCI-H23 lung = test system: NCI-H23 lung
NCI-H460 lung = test system: NCI-H460 lung
NCI-H522 lung = test system: NCI-H522 lung
OVCAR-3 ovarian = test system: OVCAR-3 ovarian
OVCAR-4 ovarian = test system: OVCAR-4 ovarian
OVCAR-5 ovarian = test system: OVCAR-5 ovarian
OVCAR-8 ovarian = test system: OVCAR-8 ovarian
RXF 393 renal = test system: RXF 393 renal
RXF-631 renal = test system: RXF-631 renal
SF-268 CNS = test system: SF-268 CNS
SF-295 CNS = test system: SF-295 CNS
SF-539 CNS = test system: SF-539 CNS
SK-MEL-2 melanoma = test system: SK-MEL-2 melanoma
SK-MEL-28 melanoma = test system: SK-MEL-28 melanoma
SK-MEL-5 melanoma = test system: SK-MEL-5 melanoma
SK-OV-3 ovarian = test system: SK-OV-3 ovarian
SN12C renal = test system: SN12C renal
SNB-19 CNS = test system: SNB-19 CNS
SNB-75 CNS = test system: SNB-75 CNS
SNB-78 CNS = test system: SNB-78 CNS
SR leukemia = test system: SR leukemia
SW-620 colon = test system: SW-620 colon
TK-10 renal = test system: TK-10 renal
U251 CNS = test system: U251 CNS
UACC-257 melanoma = test system: UACC-257 melanoma
UACC-62 melanoma = test system: UACC-62 melanoma
UO-31 renal = test system: UO-31 renal
XF 498 CNS = test system: XF 498 CNS
RPMI-8226 leukemia = test system: RPMI-8226 leukemia

Measured: TGI

CCOC(=O)C1=C(NC(C)(C)C)OC/C1=N\NC(=O)Cc1ccccc1
> 100 µM: 786-0 renal | A498 renal | A549 NSCLC | ACHN renal | CAKI-1 renal | CCRF-CEM leukemia | COLO 205 colon | DLD-1 colon | DMS 114 small cell lung | DMS 273 small cell lung | EKVX NSCLC | HCC-2998 colon | HCT-116 colon | HCT-15 colon | HL-60(TB) leukemia | HOP-18 NSCLC | HOP-62 NSCLC | HOP-92 NSCLC | HT29 colon | IGROV1 ovarian | K-562 leukemia | KM12 colon | KM20L2 colon | LOX IMVI melanoma | LXFL 529 NSCLC | M14 melanoma | M19-MEL melanoma | MALME-3M melanoma | MOLT-4 leukemia | NCI-H226 lung | NCI-H23 lung | NCI-H460 lung | NCI-H522 lung | OVCAR-3 ovarian | OVCAR-4 ovarian | OVCAR-5 ovarian | OVCAR-8 ovarian | RXF 393 renal | RXF-631 renal | SF-268 CNS | SF-295 CNS | SF-539 CNS | SK-MEL-2 melanoma | SK-MEL-28 melanoma | SK-MEL-5 melanoma | SK-OV-3 ovarian | SN12C renal | SNB-19 CNS | SNB-75 CNS | SNB-78 CNS | SR leukemia | SW-620 colon | TK-10 renal | U251 CNS | UACC-257 melanoma | UACC-62 melanoma | UO-31 renal | XF 498 CNS

Cc1cc(NS(=O)(=O)c2ccc(NC(=O)c3cccn4c(=O)c5ccccc5nc34)cc2)no1
> 100 µM: 786-0 renal | A498 renal | A549 NSCLC | ACHN renal | CAKI-1 renal | CCRF-CEM leukemia | COLO 205 colon | DLD-1 colon | DMS 114 small cell lung | DMS 273 small cell lung | EKVX NSCLC | HCC-2998 colon | HCT-116 colon | HL-60(TB) leukemia | HOP-18 NSCLC | HOP-62 NSCLC | HOP-92 NSCLC | HT29 colon | IGROV1 ovarian | K-562 leukemia | KM12 colon | KM20L2 colon | LOX IMVI melanoma | LXFL 529 NSCLC | M14 melanoma | M19-MEL melanoma | MALME-3M melanoma | MOLT-4 leukemia | NCI-H226 lung | NCI-H23 lung | NCI-H460 lung | NCI-H522 lung | OVCAR-3 ovarian | OVCAR-4 ovarian | OVCAR-8 ovarian | RPMI-8226 leukemia | RXF 393 renal | RXF-631 renal | SF-268 CNS | SF-295 CNS | SF-539 CNS | SK-MEL-28 melanoma | SK-MEL-5 melanoma | SK-OV-3 ovarian | SN12C renal | SNB-19 CNS | SNB-75 CNS | SNB-78 CNS | SR leukemia | SW-620 colon | TK-10 renal | U251 CNS | UACC-257 melanoma | UACC-62 melanoma | UO-31 renal | XF 498 CNS
